Values quoted from earlier work in US10195128B2, “Oral care compositions” (Colgate-Palmolive Company, priority 2016, dated 2019).

Conditions: oral or intraperitoneal administration; after consumption

COc1cc(CCC(C)=O)ccc1O [zingerone, 4-(3-methoxy-4-hydroxyphenyl)-butan-2-one]
Time to excretion of glucuronide compounds and sulphate conjugates in urine: ≤ 24 h
